Here are results for two substances from patent publication US7053052B2, “Therapies involving mutated heat shock transcription factor” (priority 1997, dated 2006).

Entries after “also recorded” stand apart in the source; their conditions may differ.

One series concerns HepG2 cells. Description: Mortality from simulated ischemia (LDH release). The class given is cell-based, human.
In series [1] the test system is human hsp70B promoter-driven chloramphenicol acetyltransferase (CAT) gene. Put plainly: hsp70B-CAT reporter gene assay in HeLa-CAT cells. The class given is cell-based. The protocol: CAT assays were performed using the chromatographic assay of Gorman, C. M. et al., Mol. Cell. Biol., 2:1044–1051 (1982)). DNA replication was assessed by a standard ^3H-thymidine incorporation assay. In most experiments, including all western blot assays, standardization was based on protein content. All protein determinations were made using the Bradford method. In a few experiments involving sorted cells, standardization was based on cell numbers. All experiments were repeated at least twice, and, in most cases, each data point was derived from assays of 3–5 parallel samples.
To find out whether HSF1(−) could function as a negatively acting factor, HeLa-CAT cells containing integrated copies of an hsp70B-chloramphenicol acetyltransferase (CAT) gene were co-transfected with an HSF1(−) and an EFGP-expressing construct. […] To determine whether elevated Hsp levels induced by heat preconditioning are required for development of tolerance measured as an increased rate of recovery from heat-induced translational arrest, cultures co-transfected with EGFP- and HSF1(−)-expressing constructs or transfected with EGFP-expressing construct only (control cultures) were mildly heat-preconditioned (41° C./1 hour) and, 3 hours later, subjected to a 44° C./30 minutes (severe) heat shock. […] Rates of protein synthesis were assessed by pulse-labeling cells with ^3H-leucine. […]
(A reporter such as luciferase makes a cellular process visible.)

The test system of series [2] is endogenous hsp genes in HeLa-CAT cells. Description: Expression of endogenous hsps (anti-hsp western blot, 3H-leucine labeling/fluorography). The class given is cell-based, human. As to the method:
Cells were scraped of dishes and lysed in buffer C. Aliquots containing equal amounts of cell protein as well as prestained molecular weight markers were applied to 8.5% SDS-PAGE gels. Following electrophoresis, proteins were transferred to Immobilon-P Transfer Membranes (Millipore Corp., Bedford, Mass.), and membranes were blocked by incubation with TBS (25 mM Tris-HCl, pH 8.0, 0.136 M NaCl, 2.7 mM KCl) with 2% nonfat dry milk. Appropriate sections of membranes were incubated with anti-HSF1 polyclonal antibody (Baler, R. et al., Mol. Cell. Biol., 13:2486–2496 (1993)), anti-Hsp antibodies (all from StressGen Biotechnologies Corp., Victoria, B C) or anti-actin antibody (Amersham, Arlington Heights, Ill.). Following three washes with TBS, membranes were reblocked and incubated with second antibody (horseradish peroxidase-conjugated anti-mouse or anti-rabbit IgG (Amersham). After several washes in TBS, membranes were developed using the ECL Western Blot Detection Kit (Amersham).
To avoid the apparent problem with low transfection efficiency altogether, the transfection approach was substituted by an infection approach. The mutHSF cDNA (HSF1(+)) was inserted behind a cytomegalovirus promoter flanked by adenoviral sequences in plasmid vector AC CMV pLpA SR (+). Human 293 cells expressing the adenovirus E1A region genes were co-transfected with plasmid vector lacking an inserted foreign gene or plasmid vector containing mutHSF and plasmid JM17 containing the bulk of adenovirus sequences. By recombination of sequences on the two types of plasmids, adenoviral genomes were created that lacked the EIA region (replication-defective) but contained a cytomegalovirus promoter (control virus) or a cytomegalovirus promoter linked to the mutHSF gene and that were packaged into defective virus particles (mutHSF virus)(See Graham and Prevec, 1991, for a description of the methodology used to create the adenovirus vehicles). Viral plaques were isolated and expanded, and the viral genomes were analyzed by restriction enzyme digestion. Infections with viruses were performed at a multiplicity of infection (MOI) of about 5. Three groups of 50% confluent cultures of HeLa-CAT cells were set up. The first group was infected with mutHSF virus (Ade-HSF1(+)), the second group with control virus (Ade), and the third group received no virus. The three groups of cultures were then incubated for 15, 24 and 36 hours, respectively, and were subsequently harvested. Extracts were prepared as before.
Even synthesis of the typically less inducible hsps such as hsp73 (also known as hsc70) and hsp60 was enhanced. […] The hsp90 antibody used may have detected both the inducible and constitutive forms of hsp90, masking a more dramatic induction of the inducible form. […]
On the technique in general: In western blotting, separated proteins are transferred to a membrane and probed.

Where [3] appears, read: 15, 24, 36 hours after infection.

Method for HepG2 cells: After heat treatment, cultures were incubated overnight at 37° C. When trypan blue exclusion was used as the criterion for cell survival, cells (unattached and attached) were harvested, and trypan blue-excluding cells were counted in a hemocytometer. In some experiments, cell killing was estimated by the lactate dehydrogenase (LDH) release assay, using the LDH Assay Kit from Sigma Corp. (St. Louis, Mo.). To quantify detachment from the substratum, cultures were washed three times with prewarmed DMEM, and the number of cells remaining on dishes were determined using a hemocytometer. […] Ischemic conditions were simulated as described previously (Mestril, R. et al., J. Clin. Invest., 93:759–767 (1994)). Briefly, cells were placed in slightly hypotonic HBSS (1.3 mM CaCl2, 5 mM KCl, 0.3 mM KH2PO4, 0.5 mM MgCl2, 0.4 mM MgSO4, 69 mM NaCl, 4 mM NaHCO3, 0.3 mM Na2HPO4) without glucose or serum, and made hypoxic for 4–6 hours at 37° C. Control cells were left under normoxic conditions for the same period of time. Hypoxia was achieved by using an air-tight jar from which oxygen was removed by displacement with argon. After 10 minutes of gas exchange, the oxygen concentration was <0.2%. Hypoxia was maintained using the oxygen-consuming GasPak System from BBL Microbiology Systems (Cockeysville, Md.).

Regarding human HSF1d202–316 [HSF1(+)], in the series on HepG2 cells, the “decrease of mortality from simulated ischemia” value is listed as “more than 50%”. The “activation of hsp70B-CAT genes in the absence of stress” value in series [1] (no heat shock, listed as mutHSF) is reported as “equally as well as or better than endogenous HSF1 activated by a moderately severe heat shock; also recorded: strongly activated”. Besides, in series [2] (setting [3]), the “Hsp90 levels (western blot)” value was “clearly increased”; the “expression of hsp72 and hsp27 (western blot)” value is on record as “drastically increased”; the “synthesis of hsp73 and hsp60 (western blot)” value was “enhanced”.

Regarding human HSF1d453–523 [HSF1(−)], in series [1] (41° C./1 hour heat shock, FACS-isolated cells), the “heat-induced hsp70B-CAT reporter expression” value was “severely inhibited”. Also, the “heat-induced Hsp accumulation (anti-Hsp72 western blot)” value in series [2] (41° C./1 hour heat shock) is “greatly reduced”.
